According to patent US20240215577A1, “FUNGICIDAL PYRIDONES” (FMC Corporation, priority 2021, published 2024):

Tests used:
Type in all cases: in vivo
Conditions in all cases: 100 = 100% disease control, 0 = no control
[1] = system: Puccinia recondita f. sp. tritici; experiment: Test B: wheat leaf rust, preventive spray on wheat seedlings
From the text: (§1) General protocol for preparing test suspensions for Tests A-F: the test compounds were first dissolved in acetone in an amount equal to 3% of the final volume and then suspended at the desired concentration (in ppm) in acetone and purified water (50/50 mix by volume) containing 250 ppm of the surfactant PEG400 (polyhydric alcohol esters). The resulting test suspensions were then used in Tests A-F.
(§2) The test solution was sprayed to the point of run-off on wheat seedlings. The following day the seedlings were inoculated with a spore suspension of Puccinia recondita f. sp. tritici (the causal agent of wheat leaf rust) and incubated in a saturated atmosphere at 20° C. for 24 h, and then moved to a growth chamber at 20° C. for 7 days, after which time visual disease ratings were made.
(§3) A rating of 100 indicates 100% disease control and a rating of 0 indicates no disease control (relative to the controls). A dash (-) indicates the compound was not tested.

Alternaria solani = experiment: Test F: tomato early blight, preventive spray on tomato seedlings
From the text: as §1
(§4) The test suspension was sprayed to the point of run-off on tomato seedlings. The following day the seedlings were inoculated with a spore suspension of Alternaria solani (the causal agent of tomato early blight) and incubated in a saturated atmosphere at 27° C. for 48 h, and then moved to a growth chamber at 20° C. for 3 days, after which time visual disease ratings were made.
as §3

Phakopsora pachyrhizi = experiment: Test D: Asian soybean rust, preventive spray on soybean seedlings
From the text: as §1
as §2, with “soybean” for “wheat”, “Phakopsora pachyrhizi” for “Puccinia recondita f. sp. tritici”, “Asian soybean” for “wheat leaf”, “22°” for “20°”, “h” for “h,”, “8” for “7”
as §3

Botrytis cinerea = experiment: Test E: tomato Botrytis, preventive spray on tomato seedlings
From the text: as §1
as §4, with “Botrytis cinerea” for “Alternaria solani”, “Botrytis)” for “early blight)”, “20°” for “27°”, “24°” for “20°”
as §3

[2] = system: Blumeria graminis f. sp. tritici; experiment: Test C: wheat powdery mildew, preventive spray on wheat seedlings
From the text: as §1
The test suspension was sprayed to the point of run-off on wheat seedlings. The following day the seedlings were inoculated with a spore dust of Blumeria graminis f. sp. tritici, (also known as Eysiphe graminis f. sp. tritici, the causal agent of wheat powdery mildew) and incubated in a growth chamber at 20° C. for 8 days, after which time visual disease ratings were made.
as §3

Zymoseptoria tritici = experiment: Test A: wheat leaf blotch, preventive spray on wheat seedlings
From the text: as §1
The test solution was sprayed to the point of run-off on wheat seedlings. The following day the seedlings were inoculated with a spore suspension of Zymoseptoria tritici (the causal agent of wheat leaf blotch) and incubated in a saturated atmosphere at 24° C. for 48 h, and then moved to a growth chamber at 20° C. for 17 days, after which time disease ratings were made.
as §3

[3] = Puccinia recondita, 50 ppm, read-out: Test B disease control rating
[4] = Alternaria solani, 50 ppm, read-out: Test F disease control rating
[5] = Phakopsora pachyrhizi, 216 h, 50 ppm, read-out: Test D disease control rating
[6] = Botrytis cinerea, 50 ppm, read-out: Test E disease control rating
[7] = Blumeria graminis, 50 ppm, read-out: Test C disease control rating
[8] = Zymoseptoria tritici, 50 ppm, read-out: Test A disease control rating

Row | SMILES | Test B disease control rating ([1]; 50 ppm) [%] | Test F disease control rating (Alternaria solani; 50 ppm) [%] | Test D disease control rating (Phakopsora pachyrhizi; 50 ppm) [%] | Test E disease control rating (Botrytis cinerea; 50 ppm) [%] | Test C disease control rating ([2]; 50 ppm) [%] | Test A disease control rating (Zymoseptoria tritici; 50 ppm) [%] | also measured
1 | CCn1cc(-c2cc(OC)ccc2Cl)c(-c2ccc(F)cc2Cl)c(Cl)c1=O [Compound 75] | 97 | 0 | 0 | 98 | 0 | 97 | 
2 | COc1ccc(Cl)c(-c2cn(C)c(=O)c(Cl)c2-c2ccccc2C(F)(F)F)c1 [Compound 57] | 99 | 0 | 44 | 90 | 64 | 98 | 
3 | CCOn1cc(-c2cc(OC)cc(OC)c2)c(-c2ccc(F)cc2Cl)c(Cl)c1=O [Compound 45] |  |  |  |  |  |  | Test B disease control rating ([1]; 250 ppm): 91%; Test F disease control rating (Alternaria solani; 250 ppm): 0%; Test D disease control rating (Phakopsora pachyrhizi; 250 ppm): 0%; Test E disease control rating (Botrytis cinerea; 250 ppm): 97%; Test C disease control rating ([2]; 250 ppm): 72%; Test A disease control rating (Zymoseptoria tritici; 250 ppm): 100%
4 | COc1ccc(Cl)c(-c2cn(C)c(=O)cc2-c2ccc(Br)cc2Cl)c1 [Compound 58] | 55 | 0 | 0 | 90 | 0 | 98 | 
5 | Cn1cc(-c2cccc([N+](=O)[O-])c2)c(-c2ccc(F)cc2Cl)c(Cl)c1=O [Compound 66] | 80 | 0 | 0 | 79 | 0 | 42 | 
6 | Cn1cc(-c2ccc(F)cc2Cl)c(-c2c(F)cccc2F)c(Cl)c1=O [Compound 16] | 97 | 31 | 68 | 96 | 0 | 100 | 
7 | Cn1cc(-c2ccccc2)c(-c2c(F)cccc2F)c(Cl)c1=O [Compound 11] | 80 | 94 | 0 | 97 | 0 | 99 | 
8 | COc1cc(OC)c(Cl)c(-c2cn(OC(F)F)c(=O)c(Cl)c2-c2ccc(F)cc2Cl)c1 [Compound 38, 3-chloro-5-(2-chloro-3,5-dimethoxyphenyl)-4-(2-chloro-4-fluorophenyl)-1-(difluoromethoxy)-2(1H)-pyridinone] |  |  |  |  |  |  | pest or weed control at 50 ppm [1, 3]: 100%; pest or weed control at 50 ppm (Alternaria solani; [4]): 0%; pest or weed control at 50 ppm (Phakopsora pachyrhizi; [5]): 75%; pest or weed control at 50 ppm (Botrytis cinerea; [6]): 96%; pest or weed control at 50 ppm [2, 7]: 73%; pest or weed control at 50 ppm (Zymoseptoria tritici; [8]): 96%
9 | CCOc1ccc(Cl)c(-c2cn(C)c(=O)c(Cl)c2-c2ccc(F)cc2F)c1 [Compound 52] | 100 | 99 | 81 | 99 | 91 | 100 | 
10 | Cn1cc(-c2sccc2Cl)c(-c2ccc(F)cc2Cl)c(Cl)c1=O [Compound 55] | 90 | 0 | 0 | 97 | 0 | 96 | 
11 | Cn1cc(-c2ccc(F)cc2Cl)c(-c2ccc(F)cc2F)c(Cl)c1=O [Compound 42] | 99 | 93 | 73 | 94 | 93 | 100 | 
12 | CCc1c(-c2ccc(F)cc2Cl)c(-c2cc(F)ccc2Cl)cn(C)c1=O [Compound 23] | 100 | 83 | 0 | 69 | 99 | 100 | 
13 | Cn1cc(-c2ccccc2C(F)(F)F)c(-c2ccc(F)cc2Cl)c(Cl)c1=O [Compound 27] | 100 | 0 | 25 | 58 | 0 | 98 | 
14 | COc1cc(-c2cn(C)c(=O)c(Cl)c2-c2ccc(F)cc2Cl)cc(OC)c1Cl [Compound 5, 3-chloro-5-(4-chloro-3,5-dimethoxyphenyl)-4-(2-chloro-4-fluorophenyl)-1-methyl-2(1H)-pyridinone] |  |  |  |  |  |  | pest or weed control at 250 ppm ([1]; Puccinia recondita, 250 ppm, read-out: Test B disease control rating): 100%; pest or weed control at 250 ppm (Alternaria solani; Alternaria solani, 250 ppm, read-out: Test F disease control rating): 99%; pest or weed control at 250 ppm (Phakopsora pachyrhizi; Phakopsora pachyrhizi, 216 h, 250 ppm, read-out: Test D disease control rating): 78%; pest or weed control at 250 ppm (Botrytis cinerea; Botrytis cinerea, 250 ppm, read-out: Test E disease control rating): 98%; pest or weed control at 250 ppm ([2]; Blumeria graminis, 250 ppm, read-out: Test C disease control rating): 0%; pest or weed control at 250 ppm (Zymoseptoria tritici; Zymoseptoria tritici, 250 ppm, read-out: Test A disease control rating): 100%
15 | COc1ccc(Cl)c(-c2cn(C)c(=O)c(Cl)c2-c2ccccc2F)c1 [Compound 61] | 100 | 100 | 94 | 98 | 89 | 100 | 
16 | COc1cc(OC)cc(-c2cn(OC)c(=O)c(Cl)c2-c2ccc(F)cc2Cl)c1 [Compound 19, 3-chloro-4-(2-chloro-4-fluorophenyl)-5-(3,5-dimethoxyphenyl)-1-methoxy-2(1H)-pyridinone] |  |  |  |  |  |  | pest or weed control at 50 ppm [1, 3]: 99%; pest or weed control at 50 ppm (Alternaria solani; [4]): 0%; pest or weed control at 50 ppm (Phakopsora pachyrhizi; [5]): 11%; pest or weed control at 50 ppm (Botrytis cinerea; [6]): 98%; pest or weed control at 50 ppm [2, 7]: 0%; pest or weed control at 50 ppm (Zymoseptoria tritici; [8]): 58%
17 | Cn1cc(-c2ccc(F)cc2)c(-c2c(F)cccc2F)c(Cl)c1=O [Compound 17] | 99 | 100 | 75 | 98 | 0 | 100 | 
18 | Cc1c(-c2cn(C)c(=O)c(Cl)c2-c2ccc(F)cc2Cl)cccc1[N+](=O)[O-] [Compound 54] | 99 | 26 | 75 | 92 | 0 | 100 | 
19 | COc1ccc(Cl)c(-c2cn(C)c(=O)c(Br)c2-c2ccc(F)cc2Cl)c1 [Compound 33, 3-bromo-4-(2-chloro-4-fluorophenyl)-5-(2-chloro-5-methoxyphenyl)-1-methyl-2(1H)-pyridinone] |  |  |  |  |  |  | pest or weed control at 50 ppm [1, 3]: 100%; pest or weed control at 50 ppm (Alternaria solani; [4]): 100%; pest or weed control at 50 ppm (Phakopsora pachyrhizi; [5]): 89%; pest or weed control at 50 ppm (Botrytis cinerea; [6]): 100%; pest or weed control at 50 ppm [2, 7]: 99%; pest or weed control at 50 ppm (Zymoseptoria tritici; [8]): 100%
20 | CCCn1cc(-c2cc(OC)ccc2Cl)c(-c2ccc(F)cc2Cl)c(Cl)c1=O [Compound 76] | 55 | 0 | 0 | 96 | 0 | 63 | 
